Assay: Total Antioxidant Capacity (TAC) assay, Cell Biolabs kit, copper ion reagent, absorbance at 490 nm
Format: biochemical
Conditions: triplicate
Experimental: Total antioxidant capacity (TAC) was determined using a kit (Cell Biolabs, Inc) as follows; the test samples were diluted in water and a buffer to reach a final antioxidant agent to buffer ratio ranging from 1:1 to 1:1,000,000. 20 ul of test sample or control (ascorbic acid or green tea) were added to the wells of 96 well plate, followed by 180 μL of 1X Reaction Buffer (provided with the kit). The absorbance of the reaction mix in each well was measured at 490 nm to get an initial reading. 50 μL of the 1X Copper Ion Reagent (provided with the kit) were added to each well to initiate the reaction. The reaction was allowed to carry on for 5 minutes on an orbital shaker and 50 μL of 1X Stop Solution (provided with the kit) added to each well to terminate the reaction. The colour change was assessed using a plate reader at 490 nm.
The stronger the colour change at the end of the reaction, the higher the spectrophotometric value, and the higher the antioxidant capacity of the antioxidant agents.
21 antioxidant compounds were tested in triplicate at antioxidant: buffer ratios ranging from 1:1 to 1:1,000,000.
The actual TAC of each of these compounds was calculated using the TAC assay described above, and compared with the predicted values to determine the % difference in TAC.

## Dimethylmethylmethoxy chromanol
Antioxidant:Buffer 1:1 (concentration 1)
  Total Antioxidant Capacity (TAC): 1.839
Antioxidant:Buffer 1:10 (concentration 0.1)
  Total Antioxidant Capacity (TAC): 1.807
Antioxidant:Buffer 1:100 (concentration 0.01)
  Total Antioxidant Capacity (TAC): 1.824

Source: patent US20250221920A1, “Antioxidant Compositions” (THE BOOTS COMPANY PLC, priority 2022, published 2025)
